Patent US6472348B1, “Pyridone derivatives and herbicides” (Kumiai Chemical Industry Co., Ltd., priority 1996, dated 2002)

How the values were obtained:
Assay type in all cases: in vivo
[1] = test system: barnyardgrass (Ec); test: Test Example 1: herbicidal effects by paddy field soil treatment; conditions: 100 g of the active ingredient per 10 ares, 21st day after the application, index 0-5 of Table 47;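 also: grade of growth control; 5 = at least 90%; 4 = 70 to 90%; 3 = 50 to 70%; 2 = 30 to 50%; 1 = 10 to 30%; 0 = under 10%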
Method in brief: (§1)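 Scoring of herbicidal effect came 21 days after application of 100 g active ingredient per 10 ares to flooded (3 cm) paddy-soil pots sown with barnyardgrass, monochoria and bulrush, kept in a greenhouse.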

[2] = test system: bulrush (Sc); test: as above; conditions: 100 g of the active ingredient per 10 ares, 21st day after the application, index 0-5 of Table 47;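 also: grade of growth control; 5 = at least 90%; 4 = 70 to 90%; 3 = 50 to 70%; 2 = 30 to 50%; 1 = 10 to 30%; 0 = under 10%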
Method in brief: as §1

[3] = test system: monochoria (Mo); test: as above; conditions: 100 g of the active ingredient per 10 ares, 21st day after the application, index 0-5 of Table 47;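 also: grade of growth control; 5 = at least 90%; 4 = 70 to 90%; 3 = 50 to 70%; 2 = 30 to 50%; 1 = 10 to 30%; 0 = under 10%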
Method in brief: as §1

[4] = test system: Digitaria ciliaris (Di); test: Test Example 2: herbicidal effects by upland field soil treatment; conditions: 100 g of the active ingredient per 10 ares, evaluated on the 21st day after application;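 also: grade of growth control; 5 = at least 90%; 4 = 70 to 90%; 3 = 50 to 70%; 2 = 30 to 50%; 1 = 10 to 30%; 0 = under 10%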
Excerpt: (§2) (Test on Herbicidal Effects by Upland Field Soil Treatment)

[5] = test system: barnyardgrass (Ec); test: as above; conditions: 100 g of the active ingredient per 10 ares, evaluated on the 21st day after application
Excerpt: as §2

[6] = test system: common lambsquarters (Ch); test: as above; conditions: 100 g of the active ingredient per 10 ares, evaluated on the 21st day after application
Excerpt: as §2

[7] = test system: pale smartweed (Po); test: as above; conditions: 100 g of the active ingredient per 10 ares, evaluated on the 21st day after application
Excerpt: as §2

[8] = test system: rice flatsedge (Ci); test: as above; conditions: 100 g of the active ingredient per 10 ares, evaluated on the 21st day after application
Excerpt: as §2

[9] = test system: slender amaranth (Am); test: as above; conditions: 100 g of the active ingredient per 10 ares, evaluated on the 21st day after application
Excerpt: as §2

[10] = test system: Diaitaria ciliaris (Di); test: Test Example 3: herbicidal effects by upland field foliage treatment; design: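 grade of growth control; 5 = at least 90%; 4 = 70 to 90%; 3 = 50 to 70%; 2 = 30 to 50%; 1 = 10 to 30%; 0 = under 10%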; conditions: 100 g active ingredient per 10 ares, evaluated 14th day after treatment
Method in brief: (§3)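 Greenhouse test, upland conditions: seeds sown in sand pots of 120 cm^2 area and overlaid with soil; 2 weeks growth; leaves treated; herbicidal injury graded on day 14 after treatment by fixed standards.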

[11] = test system: barnyardgrass (Ec); test: as above; design: scale not given here; conditions: 100 g active ingredient per 10 ares, evaluated 14th day after treatment
Method in brief: as §3

[12] = test system: common lambsquarters (Ch); test: as above; design: scale not given here; conditions: 100 g active ingredient per 10 ares, evaluated 14th day after treatment
Method in brief: as §3

[13] = test system: pale smartweed (Po); test: as above; design: scale not given here; conditions: 100 g active ingredient per 10 ares, evaluated 14th day after treatment
Method in brief: as §3

[14] = test system: rice flatsedge (Ci); test: as above; design: scale not given here; conditions: 100 g active ingredient per 10 ares, evaluated 14th day after treatment
Method in brief: as §3

[15] = test system: slender amaranth (Am); test: as above; design: scale not given here; conditions: 100 g active ingredient per 10 ares, evaluated 14th day after treatment
Method in brief: as §3

[16] = test system: cotton (Go); test: Test Example 4: crop plant selectivity by upland field soil treatment (cotton), phytotoxicity; design: scale not given here; conditions: dose 6.3 g ai/10 a, evaluated 21st day after application
Protocol: (§4) (Test on Crop Plant Selectivity by Upland Field Soil Treatment)
(§5) In a plastic pot (surface area: 600 cm^2) filled with sand, cotton (Go), Diaitaria ciliaris (Di), green foxtail (Se), pale smartweed (Po), slender amaranth (Am), common lambsquarters (Ch) and China jute (Ab) were sown and covered with soil. […] The plants were then cultured in a green house, and the evaluation of the herbicidal effects and phytotoxicity was conducted on the 21st day after the application in accordance with the standards as identified in Table 47. Symbol—represents “not tested”.

[17] = test system: China jute (Ab); test: Test Example 4: crop plant selectivity by upland field soil treatment (cotton), herbicidal effects; design: scale not given here; conditions: dose 6.3 g ai/10 a, evaluated 21st day after application
Protocol: as §4, §5

[18] = test system: common lambsquarters (Ch); test: as above; design: scale not given here; conditions: dose 6.3 g ai/10 a, evaluated 21st day after application
Protocol: as §4, §5

[19] = test system: green foxtail (Se); test: as above; design: scale not given here; conditions: dose 6.3 g ai/10 a, evaluated 21st day after application
Protocol: as §4, §5

[20] = test system: pale smartweed (Po); test: as above; design: scale not given here; conditions: dose 6.3 g ai/10 a, evaluated 21st day after application
Protocol: as §4, §5

[21] = test system: slender amaranth (Am); test: as above; design: scale not given here; conditions: dose 6.3 g ai/10 a, evaluated 21st day after application
Protocol: as §4, §5

[22] = test system: wheat (Tr); test: Test Example 5: crop plant selectivity by upland field soil treatment (wheat), phytotoxicity; design: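 grade of crop injury; 5 = at least 90%; 4 = 70 to 90%; 3 = 50 to 70%; 2 = 30 to 50%; 1 = 10 to 30%; 0 = under 10%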; conditions: dose 6.3 g ai/10a, 21st day after application
Protocol: as §4
(§6) In a plastic pot (surface area: 600 cm^2) filled with sand, wheat (Tr), Diaitaria ciliaris (Di), green foxtail (Se), pale smartweed (Po), slender amaranth (Am), common lambsquarters (Ch) and China jute (Ab) were sown and covered with soil. […] The plants were then cultured in a green house, and the evaluation of the herbicidal effects and phytotoxicity was conducted on the 21st day after the application in accordance with the standards as identified in Table 47. Symbol—represents “not tested”.

[23] = test system: China jute (Ab); test: Test Example 5: crop plant selectivity by upland field soil treatment (wheat), herbicidal effects; design: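 grade of growth control; 5 = at least 90%; 4 = 70 to 90%; 3 = 50 to 70%; 2 = 30 to 50%; 1 = 10 to 30%; 0 = under 10%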; conditions: dose 6.3 g ai/10a, 21st day after application
Protocol: as §4, §6

[24] = test system: common lambsquarters (Ch); test: as above; design: scale not given here; conditions: dose 6.3 g ai/10a, 21st day after application
Protocol: as §4, §6

[25] = test system: green foxtail (Se); test: as above; design: scale not given here; conditions: dose 6.3 g ai/10a, 21st day after application
Protocol: as §4, §6

[26] = test system: pale smartweed (Po); test: as above; design: scale not given here; conditions: dose 6.3 g ai/10a, 21st day after application
Protocol: as §4, §6

[27] = test system: slender amaranth (Am); test: as above; design: scale not given here; conditions: dose 6.3 g ai/10a, 21st day after application
Protocol: as §4, §6

[28] = test system: soybean (Gl); test: Test Example 6: crop plant selectivity by upland field soil treatment (soybean), phytotoxicity; design: scale not given here; conditions: dose 6.3 g ai/10a, 21st day after application
Protocol: as §4
(§7) In a plastic pot (surface area: 600 cm^2) filled with sand, soybean (Gl), Diaitaria ciliaris (Di), green foxtail (Se), Johnsongrass (So), pale smartweed (Po), slender amaranth (Am), common lambsquarters (Ch) and China jute (Ab) were sown and covered with soil. […] The plants were then cultured in a green house, and the evaluation of the herbicidal effects and phytotoxicity was conducted on the 21st day after the application in accordance with the standards as identified in Table 47. Symbol—represents “not tested”.

[29] = test system: China jute (Ab); test: Test Example 6: crop plant selectivity by upland field soil treatment (soybean), herbicidal effects; design: scale not given here; conditions: dose 6.3 g ai/10a, 21st day after application
Protocol: as §4, §7

[30] = test system: common lambsquarters (Ch); test: as above; design: scale not given here; conditions: dose 6.3 g ai/10a, 21st day after application
Protocol: as §4, §7

[31] = test system: green foxtail (Se); test: as above; design: scale not given here; conditions: dose 6.3 g ai/10a, 21st day after application
Protocol: as §4, §7

[32] = test system: pale smartweed (Po); test: as above; design: scale not given here; conditions: dose 6.3 g ai/10a, 21st day after application
Protocol: as §4, §7

[33] = test system: slender amaranth (Am); test: as above; design: scale not given here; conditions: dose 6.3 g ai/10a, 21st day after application
Protocol: as §4, §7

[34] = test system: corn (Ze); test: Test Example 7: crop plant selectivity by upland field soil treatment (corn), phytotoxicity; design: scale not given here; conditions: dose 6.3 g ai/10a, 21st day after application
Protocol: as §4
(§8) In a plastic pot (surface area: 600 cm^2) filled with sand, corn (Ze), green foxtail (Se), pale smartweed (Po), slender amaranth (Am), common lambsquarters (Ch) and China jute (Ab) were sown and covered with soil. […] The plants were then cultured in a green house, and the evaluation of the herbicidal effects and phytotoxicity was conducted on the 21st day after the application in accordance with the standards as identified in Table 47.

[35] = test system: China jute (Ab); test: Test Example 7: crop plant selectivity by upland field soil treatment (corn), herbicidal effects; design: scale not given here; conditions: dose 6.3 g ai/10a, 21st day after application
Protocol: as §4, §8

[36] = test system: common lambsquarters (Ch); test: as above; design: scale not given here; conditions: dose 6.3 g ai/10a, 21st day after application
Protocol: as §4, §8

[37] = test system: green foxtail (Se); test: as above; design: scale not given here; conditions: dose 6.3 g ai/10a, 21st day after application
Protocol: as §4, §8

[38] = test system: pale smartweed (Po); test: as above; design: scale not given here; conditions: dose 6.3 g ai/10a, 21st day after application
Protocol: as §4, §8

[39] = test system: slender amaranth (Am); test: as above; design: scale not given here; conditions: dose 6.3 g ai/10a, 21st day after application
Protocol: as §4, §8

COc1cc(Cl)cc(F)c1-c1ccc(C(F)(F)F)n(C)c1=O [1′-1]
5: Herbicidal effects Ec [1] | Herbicidal effects Sc [2] | Herbicidal effects Mo [3] | Herbicidal effects Di [4] | Herbicidal effects Ec [5] | Herbicidal effects Ch [6] | Herbicidal effects Po [7] | Herbicidal effects Ci [8] | Herbicidal effects Am [9] | Herbicidal effects Di [10] | Herbicidal effects Ec [11] | Herbicidal effects Ch [12] | Herbicidal effects Po [13] | Herbicidal effects Ci [14] | Herbicidal effects Am [15] | Herbicidal effects Ab [17] | Herbicidal effects Ch [18] | Herbicidal effects Se [19] | Herbicidal effects Po [20] | Herbicidal effects Am [21] | Herbicidal effects Ab [23] | Herbicidal effects Ch [24] | Herbicidal effects Se [25] | Herbicidal effects Po [26] | Herbicidal effects Am [27] | Herbicidal effects Ab [29] | Herbicidal effects Ch [30] | Herbicidal effects Se [31] | Herbicidal effects Po [32] | Herbicidal effects Am [33] | Herbicidal effects Ab [35] | Herbicidal effects Ch [36] | Herbicidal effects Se [37] | Herbicidal effects Po [38] | Herbicidal effects Am [39]
0: Phytotoxicity Go [16]
1: Phytotoxicity Tr [22] | Phytotoxicity Gl [28] | Phytotoxicity Ze [34]

C#CCOc1cc(Cl)cc(F)c1-c1ccc(C(F)(F)F)n(C)c1=O [1′-4]
5: Herbicidal effects Ec [1] | Herbicidal effects Sc [2] | Herbicidal effects Mo [3] | Herbicidal effects Di [4] | Herbicidal effects Ec [5] | Herbicidal effects Ch [6] | Herbicidal effects Po [7] | Herbicidal effects Ci [8] | Herbicidal effects Am [9] | Herbicidal effects Di [10] | Herbicidal effects Ec [11] | Herbicidal effects Ch [12] | Herbicidal effects Po [13] | Herbicidal effects Ci [14] | Herbicidal effects Am [15] | Herbicidal effects Ab [17] | Herbicidal effects Ch [18] | Herbicidal effects Se [19] | Herbicidal effects Po [20] | Herbicidal effects Am [21] | Herbicidal effects Ab [23] | Herbicidal effects Ch [24] | Herbicidal effects Se [25] | Herbicidal effects Po [26] | Herbicidal effects Am [27] | Herbicidal effects Ab [29] | Herbicidal effects Ch [30] | Herbicidal effects Se [31] | Herbicidal effects Po [32] | Herbicidal effects Am [33] | Herbicidal effects Ab [35] | Herbicidal effects Ch [36] | Herbicidal effects Se [37] | Herbicidal effects Po [38] | Herbicidal effects Am [39]
1: Phytotoxicity Tr [22] | Phytotoxicity Gl [28] | Phytotoxicity Ze [34]
0: Phytotoxicity Go [16]

CCCON=Cc1cc(-c2ccc(C(F)(F)F)n(C)c2=O)c(F)cc1Cl [Compound 1-188]
5: Herbicidal effects Ec [1] | Herbicidal effects Sc [2] | Herbicidal effects Mo [3] | Herbicidal effects Di [4] | Herbicidal effects Ec [5] | Herbicidal effects Ch [6] | Herbicidal effects Po [7] | Herbicidal effects Ci [8] | Herbicidal effects Am [9] | Herbicidal effects Di [10] | Herbicidal effects Ec [11] | Herbicidal effects Ch [12] | Herbicidal effects Po [13] | Herbicidal effects Ci [14] | Herbicidal effects Am [15] | Herbicidal effects Ab [17] | Herbicidal effects Ch [18] | Herbicidal effects Se [19] | Herbicidal effects Po [20] | Herbicidal effects Am [21] | Herbicidal effects Ab [23] | Herbicidal effects Ch [24] | Herbicidal effects Se [25] | Herbicidal effects Po [26] | Herbicidal effects Am [27] | Herbicidal effects Ab [29] | Herbicidal effects Ch [30] | Herbicidal effects Se [31] | Herbicidal effects Po [32] | Herbicidal effects Am [33] | Herbicidal effects Ab [35] | Herbicidal effects Ch [36] | Herbicidal effects Se [37] | Herbicidal effects Po [38] | Herbicidal effects Am [39]
0: Phytotoxicity Go [16] | Phytotoxicity Ze [34]
1: Phytotoxicity Tr [22] | Phytotoxicity Gl [28]
